Source: patent US9546141B2, “Salts” (Sprout Pharmaceuticals, Inc., priority 2008, dated 2017)

Legend:
[1] = Solubility of the crystalline salt forms in water; assay type: physicochemical; conditions: shaken 2 hours, filtered, UV-spectroscopy
Method: Solubility of the different crystalline salt forms in water was determined by adding […] of compound into 5 ml of water at room temperature. The mixture was vigorously shaken for 2 hours at room temperature. Afterwards the undissolved solid was removed by filtering through a 0.45 μm PTFE filter, in the filtrate the dissolved amount of compound was determined by UV-spectroscopy.

[2] = Hygroscopicity (IGAsorp water sorption monitor); assay type: physicochemical; conditions: room temperature
Method: IGAsorp water sorption monitor from Hiden Isochema was used for the analysis of the hygroscopical behaviour at room temperature. • humidity profile: from 10-90% r.h. in steps of 10%, sorption as well as desorption profiles were registered • weight-in quantity: 10-20 mg

| solubility in water at room temperature [1] [µg/mL] | hygroscopicity expressed in the uptake of water in the range of 10-90% relative humidity [2] [%] | SMILES |
| --- | --- | --- |
| 1700 | 0.7 | O=C(O)C(=O)O.O=c1[nH]c2ccccc2n1CCN1CCN(c2cccc(C(F)(F)F)c2)CC1 [IX, 1-[2-(4-(3-trifluoro-methyl-phenyl)piperazin-1-yl)ethyl]-2,3-dihydro-1H-benzimidazol-2-one oxalate] |
| 1100 | 3.4 | CS(=O)(=O)O.O=c1[nH]c2ccccc2n1CCN1CCN(c2cccc(C(F)(F)F)c2)CC1 [VII, 1-[2-(4-(3-trifluoro-methyl-phenyl)piperazin-1-yl)ethyl]-2,3-dihydro-1H-benzimidazol-2-one mesylate] |
| 100 | 0.15 | O=S(=O)(O)c1ccccc1.O=c1[nH]c2ccccc2n1CCN1CCN(c2cccc(C(F)(F)F)c2)CC1 [VIII, 1-[2-(4-(3-trifluoro-methyl-phenyl)piperazin-1-yl)ethyl]-2,3-dihydro-1H-benzimidazol-2-one besylate] |
| 300 | 0.24 | O=C1NS(=O)(=O)c2ccccc21.O=c1[nH]c2ccccc2n1CCN1CCN(c2cccc(C(F)(F)F)c2)CC1 [XI, 1-[2-(4-(3-trifluoro-methyl-phenyl)piperazin-1-yl)ethyl]-2,3-dihydro-1H-benzimidazol-2-one sacharinate] |
| 1300 | 0.32 | CCS(=O)(=O)O.O=c1[nH]c2ccccc2n1CCN1CCN(c2cccc(C(F)(F)F)c2)CC1 [XV, 1-[2-(4-(3-trifluoro-methyl-phenyl)piperazin-1-yl)ethyl]-2,3-dihydro-1H-benzimidazol-2-one ethansulfonate] |
| 90 | 0.25 | Cc1ccc(S(=O)(=O)O)cc1.O=c1[nH]c2ccccc2n1CCN1CCN(c2cccc(C(F)(F)F)c2)CC1 [XXX, 1-[2-(4-(3-trifluoro-methyl-phenyl)piperazin-1-yl)ethyl]-2,3-dihydro-1H-benzimidazol-2-one tosylate] |
| 500 | 0.28 | O=C(O)/C=C/C(=O)O.O=c1[nH]c2ccccc2n1CCN1CCN(c2cccc(C(F)(F)F)c2)CC1 [XXXI, 1-[2-(4-(3-trifluoro-methyl-phenyl)piperazin-1-yl)ethyl]-2,3-dihydro-1H-benzimidazol-2-one fumarate] |
| 700 | 0.13 | CC1(C)C2CCC1(CS(=O)(=O)O)C(=O)C2.O=c1[nH]c2ccccc2n1CCN1CCN(c2cccc(C(F)(F)F)c2)CC1 [XXXII, 1-[2-(4-(3-trifluoro-methyl-phenyl)piperazin-1-yl)ethyl]-2,3-dihydro-1H-benzimidazol-2-one camphorsulfonate] |
| 500 | 0.20 | O=C(O)CO.O=c1[nH]c2ccccc2n1CCN1CCN(c2cccc(C(F)(F)F)c2)CC1 [XXXIII, 1-[2-(4-(3-trifluoro-methyl-phenyl)piperazin-1-yl)ethyl]-2,3-dihydro-1H-benzimidazol-2-one glycolate] |
